Target: T1, human α4β2 (Homo sapiens, UniProt P17787+P43681)
T1 construct: expressed in transfected cells
Assay: Calcium flux assay (FLIPR), potentiation of submaximal agonist response in HEK 293 cells expressing α4β2
Format: cell-based
Details: α4β2 PAM; fluorescence response to submaximal nicotine considered as 100%
Description: One manner to characterize α4β2 PAM activity is by characterization in clonal cell lines (for example, human embryonic kidney 293 cells) expressing the human neuronal nicotinic acetylcholine receptor subtype α4β2, particularly by use of Fluorescent Image Plate Reader technology. Effects on calcium flux or membrane potential changes can be assessed. Such assays have been reported and further details for carrying out the assays can be obtained in International Publication No. WO 2006/114400. Another method to identify and characterize allosteric modulator activity is by expressing the α4β2 subunits in Xenopus oocytes, and by measuring electrophysiological effects on ligand-evoked current responses as previously described in Curtis, L., et al., Molecular Pharmacology, 61: 127-135, 2002.
To determine the effectiveness of representative compounds of this invention as ligands for α4β2 PAM activity, the compounds of the invention can be evaluated according to the Calcium Flux Assay described below.
Human embryonic kidney (HEK) 293 cells stably expressing human α4β2 or α3β4 combinations are grown to confluency in 162 cm^2 tissue culture flasks in DMEM media supplemented with 10% FBS and 25 μg/ml zeocin and 200 μg/ml hygromycin B. Cells expressing rat or ferret subunits may also be used. For assessing α3* or α7* selectivity, IMR-32 cells may also be used. IMR-32 neuroblastoma cells (ATCC) are grown to confluency in 162 cm^2 tissue culture flasks in minimum essential media supplemented with 10% FBS and 1 mM sodium pyruvate, 1% non-essential amino acids and 1% antibiotic-antimycotic. For the calcium flux assay, c cells are then dissociated using cell dissociation buffer and 100-150 μl per well of 3.5×10^5 cells/ml cell suspension (˜50,000-100,000 cells/well) was plated into 96-well black plates (poly-D-lysine precoated) with clear bottom and maintained for 24-48 hours in a tissue culture incubator at 37° C. under an atmosphere of 5% CO2: 95% air. Other clonal cell lines or primary cell cultures that express endogenous α4* nicotinic receptors may also be used in this assay. Calcium flux was measured using calcium-3 assay kit (Molecular Devices, Sunnyvale, Calif.) or fluo-4 (Invitrogen). A stock solution of the dye was prepared by dissolving each vial supplied by the vendor in Hank's balanced salt solution buffer (HBSS) or 150 mM NMDG, 20 mM CaCl2 containing 10 mM HEPES. The stock solution was diluted 1:20 using the same buffer before use. The growth media was removed from the cells. The cells were loaded with 100 μl of the dye per well and incubated at room temperature for up to one hour for HEK 293 clonal stable cell lines or 30 minutes-45 minutes at 37° C. for IMR-32 cells. Fluorescence measurements were read simultaneously from all the wells by a Fluorometic Imaging Plate Reader (FLIPR) at an excitation wavelength of 480 nm and an emission wavelength of 520 nm. Baseline fluorescence was measured for the first 6 seconds at which 3× concentrations of modulator/test compounds were added to the cell plate at 50 μl and incubated for five minutes. The fluorescence intensity was captured every second for the first 1 minute followed by every 5 seconds for an additional 4 minutes. This procedure was followed by 50 μl of 4× concentration of agonist and readings were taken for a period of 3-5 minutes as described above.
The ability of test compounds to positively modulate the response (i.e., increase the response) induced by a submaximal concentration of agonist (EC20-30%) such as nicotine is measured. Potentiation is measured based on peak fluorescence responses by screening compounds at fixed concentrations or in a concentration-response manner to derive EC50 values. The concentration dependence of changes in fluorescence responses is fitted by nonlinear regression analysis (GraphPad Prism, San Diego, Calif.) to obtain EC50 values. The degree of potentiation and EC50 values of the test compounds are typically calculated. […]

T1 sequence (P43681 29-627 limits assumed): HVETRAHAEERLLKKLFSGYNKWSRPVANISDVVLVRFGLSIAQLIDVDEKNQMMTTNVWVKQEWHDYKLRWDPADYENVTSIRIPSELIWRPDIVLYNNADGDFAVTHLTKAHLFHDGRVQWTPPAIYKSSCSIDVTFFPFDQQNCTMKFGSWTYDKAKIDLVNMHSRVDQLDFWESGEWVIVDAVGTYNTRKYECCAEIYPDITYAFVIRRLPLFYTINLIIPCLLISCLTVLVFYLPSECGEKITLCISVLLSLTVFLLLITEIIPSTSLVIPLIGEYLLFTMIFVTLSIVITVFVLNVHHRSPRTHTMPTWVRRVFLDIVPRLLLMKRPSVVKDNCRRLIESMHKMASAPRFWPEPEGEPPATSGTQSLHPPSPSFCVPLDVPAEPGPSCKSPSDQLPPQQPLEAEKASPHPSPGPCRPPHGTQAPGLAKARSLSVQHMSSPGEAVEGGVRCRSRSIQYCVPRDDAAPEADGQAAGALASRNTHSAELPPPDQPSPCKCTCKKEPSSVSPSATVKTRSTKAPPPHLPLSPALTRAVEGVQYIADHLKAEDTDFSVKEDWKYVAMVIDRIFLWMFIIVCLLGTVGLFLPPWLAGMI
T1 sequence (P17787 26-502): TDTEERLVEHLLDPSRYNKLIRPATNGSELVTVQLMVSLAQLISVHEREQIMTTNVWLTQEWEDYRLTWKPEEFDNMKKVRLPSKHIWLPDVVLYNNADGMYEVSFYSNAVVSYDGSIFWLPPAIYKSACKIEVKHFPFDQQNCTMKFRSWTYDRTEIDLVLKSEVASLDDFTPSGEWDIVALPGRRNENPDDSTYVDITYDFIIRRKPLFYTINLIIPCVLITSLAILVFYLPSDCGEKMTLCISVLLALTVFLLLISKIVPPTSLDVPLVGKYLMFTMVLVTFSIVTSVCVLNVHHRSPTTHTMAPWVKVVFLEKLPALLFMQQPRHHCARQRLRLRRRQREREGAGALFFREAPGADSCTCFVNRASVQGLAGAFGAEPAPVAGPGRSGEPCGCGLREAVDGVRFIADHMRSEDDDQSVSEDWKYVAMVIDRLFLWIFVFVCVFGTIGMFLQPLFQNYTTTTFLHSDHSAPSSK

Row | SMILES | Activity (allosteric effects—potentiation of fluorescence responses)
1 | c1cncc(-c2cc(-c3cccnc3)on2)c1 [Example 1, 3,5-Di(pyridin-3-yl)isoxazole] | a (“a” denotes as activity range from 200-400%)
2 | Fc1ccc(-c2cc(-c3cccnc3)no2)cc1F [Example 16, 5-(3,4-Difluorophenyl)-3-(pyridin-3-yl)isoxazole] | b (“b” denotes an activity range from 150-200%)
3 | Fc1cc(-c2cc(-c3cccnc3)no2)cc(F)c1F [Example 17, 5-(3,4,5-Trifluorophenyl)-3-(pyridin-3-yl)isoxazole] | a (“a” denotes as activity range from 200-400%)
4 | CC(=O)c1cccc(-c2cc(-c3cccnc3)no2)c1 [Example 25, 1-(3-(3-(Pyridin-3-yl)isoxazol-5-yl)phenyl)ethanone] | b (“b” denotes an activity range from 150-200%)
5 | N#Cc1cccc(-c2cc(-c3cncc(F)c3)no2)c1 [Example 29, 3-(3-(5-Fluoropyridin-3-yl)isoxazol-5-yl)benzonitrile] | b (“b” denotes an activity range from 150-200%)
6 | N#Cc1cc(-c2cc(-c3cccnc3)no2)ccc1F [Example 68, 2-Fluoro-5-(3-(pyridin-3-yl)isoxazol-5-yl)benzonitrile] | a (“a” denotes as activity range from 200-400%)

Reference: patent publication US8383658B2, “Isoxazole based neuronal nicotinic receptor ligands and methods of use” (Abbott Laboratories, priority 2008, dated 2013)
